Measured values taken from patent US5891871A, “Substituted 2,3-benzodiazepin-4-ones and the use thereof” (CoCensys, Inc., priority 1997, dated 1999).
pIC50: −log10 of the molar value.

Experiments:
[1] = literature; cited from earlier work
[2] = literature; cited from earlier work; remark: listed apart in the source
AMPA receptor = AMPA receptor antagonism / positive modulation: AMPA induced current in Xenopus oocytes expressing rat whole brain poly(A)+ RNA (electrophysiology); type: cell-based; conditions: for pIC50: oocytes expressing rat brain AMPA receptors; for AMPA positive potentiation, 200% @ μM: concentration at which AMPA current is potentiated 200%
Description: The novel substituted 2,3-benzodiazepin-4-ones were assessed by electrophysiological assays in Xenopus oocytes expressing rat whole brain poly(A)^+ RNA (see Keana et al, J. Med. Chem. 38. 4367-4379 (1995)) or in cultured rat cortical neurons (see Woodward et. al. Mol. Pharmacol. 47: 568-581 (1995)) for AMPA receptor activity. Compounds which are useful for treating or preventing the adverse consequences of stroke, hypoglycemia, neurodegenerative disorders, anxiety, epilepsy or psychosis, or which induce analgesia, will inhibit the currents across the membranes of the oocyte expressing AMPA receptors. However, if the compound potentiates currents across the oocyte membrane, then the compound is expected to be useful in enhancing cognition or treating schizophrenia or neurodegenerative diseases such as Parkinson's Disease.
The ability of AMPA receptor antagonists or positive modulators to inhibit or enhance AMPA induced current in oocyte expressing neuronal AMPA receptor was determined using procedures fully described in Keana et al, J. Med. Chem. 38: 4367-4379 (1995). […] The compounds of examples 22, 30 and 31 are positive modulators of AMPA receptor. They potentiate the AMPA current 200% at a concentration of 11, 10 and 11 μM, respectively.

mice = test: Maximal Electroshock-induced Seizure (MES) test; type: in vivo; conditions: for ED50: Mus musculus, mice, iv; for anticonvulsant activity in the MES experiment: in words
Description: Seizures are induced by application of current (50 mA, 60 pulses/sec, […], 1 sec duration, .c.) through saline-coated corneal electrodes using a Ugo Basile ECT device (Model 7801). […] A tonic seizure is defined as a hindlimb extension in excess of 90 degrees from the plane of the body. Results are treated in a quintal manner.

[3] = literature; cited from earlier work; remark: listed apart in the source
rat = conditions: literature; cited from earlier work
AMPA receptors = conditions: literature; cited from earlier work
[4] = literature; cited from earlier work; remark: listed apart in the source

Question: With `CC1Cc2cc3c(cc2C(c2ccc(N)cc2)=NN1)OCO3` (centres unmarked) as the compound, how does the central nervous effect [1] read?
Answer: CNS stimulating activity

Question: Which memory enhancement [2] does the source give for `O=C(c1ccc2c(c1)OCO2)N1CCCCC1` [BDP, 1-(1,3-benzodioxol-5-ylcarbonyl) piperidine] here?
Answer: enhance memory

Question: With `Cc1ccc(C2=NNC(=O)Cc3cc4c(cc32)OCO4)cc1` [Example 9, 7,8-Methylenedioxy-1-(4-methylphenyl)-3,5-dihydro-2,3-benzodiazepin-4(4H)-one] as the compound, how does the pIC50 (AMPA receptor) read?
Answer: 4.82

Question: With `Nc1ccc(C2=NNC(=O)Cc3cc4c(cc32)OCO4)cc1` [Example 14, 1-(4-Aminophenyl)-7,8-methylenedioxy-3,5-dihydro-2,3-benzodiazepin-4(4H)-one] as the compound, how does the ED50 (mice) read?
Answer: 2.4 mg/kg

Question: What about the “anticonvulsant activity in the MES experiment” value (mice) of the same compound?
Answer: active as anticonvulsants

Question: What about the pIC50 (AMPA receptor) of the same compound?
Answer: 5.52

Question: With `CNC(=O)N1N=C(c2ccccc2)c2cc3c(cc2CC1=O)OCO3` [Example 15, 7,8-Methylenedioxy-3-methylaminocarbonyl-1-phenyl-3,5-dihydro-2,3-benzodiazepin-4(4H)-one] as the compound, how does the pIC50 (AMPA receptor) read?
Answer: 4.59

Question: Which “AMPA positive potentiation, 200% @ μM” value (AMPA receptor) does the source give for `CC(C)N1N=C(c2ccccc2)c2cc3c(cc2CC1=O)OCO3` [Example 18, 3-Isopropyl-7,8-methylenedioxy-1-phenyl-3,5-dihydro-2,3-benzodiazepin-4(4H)-one] here?
Answer: 30 µM

Question: For `CCC(C)N1N=C(c2ccccc2)c2cc3c(cc2CC1=O)OCO3` (centres unmarked) [Example 21, 3-(2-Butyl)-7,8-methylenedioxy-1-phenyl-3,5-dihydro-2,3-benzodiazepin-4(4H)-one], which “AMPA positive potentiation, 200% @ μM” value (AMPA receptor) is on record?
Answer: 12 µM

Question: With `CCC(CC)N1N=C(c2ccccc2)c2cc3c(cc2CC1=O)OCO3` [Example 22, 7,8-Methylenedioxy-3-(3-pentyl)-1-phenyl-3,5-dihydro-2,3-benzodiazepin-4(4H)-one] as the compound, how does the “AMPA positive potentiation, 200% @ μM” value (AMPA receptor) read?
Answer: 11 µM

Question: With `CCCC(C)N1N=C(c2ccccc2)c2cc3c(cc2CC1=O)OCO3` (centres unmarked) [Example 25, 7,8-Methylenedioxy-3-(2-pentyl)-1-phenyl-3,5-dihydro-2,3-benzodiazepin-4(4H)-one] as the compound, how does the “AMPA positive potentiation, 200% @ μM” value (AMPA receptor) read?
Answer: 160 µM

Question: For `O=C1Cc2cc3c(cc2C(c2ccccc2)=NN1C1CCCCCC1)OCO3` [Example 30, 3-Cycloheptyl-7,8-methylenedioxy-1-phenyl-3,5-dihydro-2,3-benzodiazepin-4(4H)-one], which “AMPA positive potentiation, 200% @ μM” value (AMPA receptor) is on record?
Answer: 10 µM

Question: Which “AMPA positive potentiation, 200% @ μM” value (AMPA receptor) does the source give for `O=C1Cc2cc3c(cc2C(c2ccccc2)=NN1C1CCCCC1)OCO3` [Example 31, 3-Cyclohexyl-7,8-methylenedioxy-1-phenyl-3,5-dihydro-2,3-benzodiazepin-4(4H)-one] here?
Answer: 11 µM

Question: Which “AMPA positive potentiation, 200% @ μM” value (AMPA receptor) does the source give for `CCCC(CC)N1N=C(c2ccccc2)c2cc3c(cc2CC1=O)OCO3` (centres unmarked) [Example 33, 3-(3-Hexyl)-7,8-methylenedioxy-1-phenyl-3,5-dihydro-2,3-benzodiazepin-4(4H)-one] here?
Answer: 24 µM

Question: With `CC1C(=O)NN=C(c2ccc(N)cc2)c2cc3c(cc21)OCO3` (centres unmarked) [Example 45, 1-(4-Aminophenyl)-5-methyl-7,8-methylenedioxy-3,5-dihydro-2,3-benzodiazepin-4(4H)-one] as the compound, how does the pIC50 (AMPA receptor) read?
Answer: 5.40

Question: With `CC1C(=O)NN=C(c2ccc3c(c2)OCO3)c2cc3c(cc21)OCO3` (centres unmarked) [Example 48, 5-Methyl-1-(3,4-methylenedioxyphenyl)-7,8-methylenedioxy-3,5-dihydro-2,3-benzodiazepin-4(4H)-one] as the compound, how does the pIC50 (AMPA receptor) read?
Answer: 5.00

Question: With `COc1cc(C2=NNC(=O)Cc3cc4c(cc32)OCO4)ccc1[N+](=O)[O-]` [Example 56, 7,8-Methylenedioxy-1-(3-methoxy-4-nitrophenyl)-3,5-dihydro-2,3-benzodiazepin-4(4H)-one] as the compound, how does the pIC50 (AMPA receptor) read?
Answer: 4.70

Question: With `Cc1cc(C2=NNC(=O)Cc3cc4c(cc32)OCO4)ccc1N` [Example 61, 1-(4-Amino-3-methylphenyl)-7,8-methylenedioxy-3,5-dihydro-2,3-benzodiazepin-4(4H)-one] as the compound, how does the ED50 (mice) read?
Answer: 2.7 mg/kg

Question: And the “anticonvulsant activity in the MES experiment” value (mice)?
Answer: active as anticonvulsants

Question: And the pIC50 (AMPA receptor)?
Answer: 6.00

Question: With `Nc1ccc(C2=NNC(=O)Cc3cc4c(cc32)OCO4)c(Cl)c1` [Example 62, 1-(4-Amino-2-chlorophenyl)-7,8-methylenedioxy-3,5-dihydro-2,3-benzodiazepin-4(4H)-one] as the compound, how does the ED50 (mice) read?
Answer: 3.2 mg/kg

Question: And the “anticonvulsant activity in the MES experiment” value (mice)?
Answer: active as anticonvulsants

Question: And the pIC50 (AMPA receptor)?
Answer: 5.40

Question: With `Nc1ccc(C2=NNC(=O)Cc3cc4c(cc32)OCO4)cc1Cl` [Example 63, 1-(4-Amino-3-chlorophenyl)-7,8-methylendioxy-3,5-dihydro-2,3-benzodiazepin-4(4H)-one] as the compound, how does the pIC50 (AMPA receptor) read?
Answer: 6.10

Question: Which results are given for `CC1=NN=C(c2ccc(N)cc2)c2cc3c(cc2C1)OCO3.Cl` [GYKI 52466, 1-(4-aminophenyl)-4-methyl-7,8-methylenedioxy-5H-2,3-benzodiazepine-hydrochloride]?
Answer: anticonvulsant activity [3]: effective anticonvulsant; neuroprotection in rat global ischemia (rat): effective neuroprotective agent

Question: For `CC(=O)N1N=C(c2ccc(N)cc2)c2cc3c(cc2C[C@H]1C)OCO3` [LY300164], which anticonvulsant activity [3] is on record?
Answer: anticonvulsant activity

Question: And the AMPA receptor antagonism (AMPA receptors)?
Answer: noncompetitive antagonist of AMPA receptors

Question: Which “prevention of global and focal ischemic damage” value [4] does the source give for `NS(=O)(=O)c1cccc2c1c([N+](=O)[O-])cc1nc(O)c(O)nc12` [NBQX, 2,3-dihydroxy-6-nitro-7-sulfamoylbenzo[f]quinoxaline] here?
Answer: effective in preventing global and focal ischemic damage
